Measured values: patent publication US8426174B2, “Method for the production of 2-butanol” (Butamax(TM) Advanced Biofuels LLC, priority 2007, dated 2013)

Assays:
[1] = test system: Lactobacillus plantarum PN0512; assay: Growth of L. plantarum PN0512 in the presence of butanols at different temperatures; format: cell-based; design: key to Growth at 37° C. / Growth at 30° C. / Growth at 25° C.: +: growth observed as an increase in OD600.; −: no growth observed, i.e. no change in OD600
Method: Tolerance levels of bacterial strain Lactobacillus plantarum PN0512 (ATCC # PTA-7727) were determined at 25° C., 30° C. and 37° C. as follows. The strain was cultured in S30L medium (i.e., 10 mM ammonium sulfate, 5 mM potassium phosphate buffer, pH 7.0, 50 mM MOPS, pH 7.0, 2 mM MgCl2, 0.7 mM CaCl2, 50 μM MnCl2, 1 μM FeCl3, 1 μM ZnCl2, 1.72 μM CuCl2, 2.53 μM CoCl2, 2.42 μM Na2MoO4, 2 μM thiamine hydrochloride, 10 mM glucose, and 0.2% yeast extract). An overnight culture in the absence of any test compound was started in 15 mL of the S30L medium in a 150 mL flask, with incubation at 37° C. in a shaking water bath. The next morning, the overnight culture was diluted into three 500 mL flasks containing 150 mL of fresh medium to an initial OD600 of about 0.08. Each flask was incubated in a shaking water bath, one each at 25° C., 30° C. and 37° C. Each large culture was allowed to acclimate at the test temperature for at least 0.5 h. […] Growth was followed by measuring OD600 for six hours after addition of the compounds.

[2] = test system: Klebsiella pneumoniae glycerol dehydratase; assay: Glycerol dehydratase butanediol dehydratase activity, crude cell free extract; format: biochemical; conditions: 10 mM meso-2,3-butanediol, 12 μM coenzyme B12, pH 8.2, 37° C.
Excerpt: Glycerol dehydratase (E.C. 4.2.1.30) and diol dehydratase (E.C. 4.2.1.28), while structurally related, are often distinguished in the art based on various differences that include substrate specificity. […] The recombinant E. coli strain KLP23/pSYCO12, comprising Klebsiella pneumoniae genes encoding the multiple subunits of glycerol dehydratase (alpha: SEQ ID NO:145 (coding region) and 146 (protein); beta: SEQ ID NO: 147 (coding region) and 148 (protein); and gamma: SEQ ID NO: 149 (coding region) and 150 (protein)) and Klebsiella pneumoniae genes encoding the multiple subunits of glycerol dehydratase reactivase (large subunit, SEQ ID NO: 151 (coding region) and 152 (protein); and small subunit, SEQ ID NO: 153 (coding region) and 154 (protein)), is described in Emptage et al. U.S. Pat. No. 6,514,733 and in WO 2003089621, which are herein incorporated by reference. A crude, cell free extract of KLP23/pSYCO12 was prepared by methods known to one skilled in the art. […] The formation of 2-butanone was monitored by HPLC (Shodex SH-1011 column and SH-G guard column with refractive index detection; 0.01 M H2SO4 as the mobile phase at a flow rate of 0.5 mL/min and a column temperature of 50° C.; 2-butanone retention time=40.2 min). The rate of 2-butanone formation by the glycerol dehydratase preparation was determined to be 0.4 nmol/min/mg of crude protein.

CCC(C)O (stereo not drawn) [2-butanol]
4.9%: concentration in which growth was not observed ([1]; 30° C.)
4.3%: concentration in which growth was observed ([1]; 37° C.)
−: Growth at 37° C. ([1]; 4.7 % w/v 2-butanol) | Growth at 30° C. ([1]; 4.9 % w/v 2-butanol) | Growth at 37° C. ([1]; 5.2 % w/v 2-butanol) | Growth at 25° C. ([1]; 5.6 % w/v 2-butanol) | Growth at 37° C. ([1]; 5.6 % w/v 2-butanol) | Growth at 37° C. ([1]; 6.0 % w/v 2-butanol) | Growth at 37° C. ([1]; 6.4 % w/v 2-butanol) | Growth at 37° C. ([1]; 7.3 % w/v 2-butanol)
4.5%: concentration in which growth was not observed ([1]; 37° C.)
+: Growth at 37° C. ([1]; 1.8 % w/v 2-butanol) | Growth at 37° C. ([1]; 2.1 % w/v 2-butanol) | Growth at 25° C. ([1]; 2.9 % w/v 2-butanol) | Growth at 30° C. ([1]; 2.9 % w/v 2-butanol) | Growth at 37° C. ([1]; 2.9 % w/v 2-butanol) | Growth at 37° C. ([1]; 3.1 % w/v 2-butanol) | Growth at 37° C. ([1]; 3.6 % w/v 2-butanol) | Growth at 25° C. ([1]; 3.8 % w/v 2-butanol) | Growth at 30° C. ([1]; 3.8 % w/v 2-butanol) | Growth at 37° C. ([1]; 3.8 % w/v 2-butanol) | Growth at 30° C. ([1]; 4.0 % w/v 2-butanol) | Growth at 25° C. ([1]; 4.3 % w/v 2-butanol) | Growth at 30° C. ([1]; 4.3 % w/v 2-butanol) | Growth at 37° C. ([1]; 4.3 % w/v 2-butanol) | Growth at 25° C. ([1]; 4.7 % w/v 2-butanol) | Growth at 30° C. ([1]; 4.7 % w/v 2-butanol) | Growth at 25° C. ([1]; 4.9 % w/v 2-butanol) | Growth at 25° C. ([1]; 5.2 % w/v 2-butanol) | Growth at 30° C. ([1]; […] w/v 2-butanol)
5.2%: concentration in which growth was observed ([1]; 25° C.)
4.7%: concentration in which growth was observed ([1]; 30° C.)

CC(O)C(C)O (stereo not drawn) [meso-2,3-butanediol]
0.4 nmol/min/mg of crude protein: rate of 2-butanone formation [2]
